Measurements: patent publication US20260325504A1, “Genetically Engineered Human Pituitary Corticotroph Tumor Organoids Exhibit Divergent Responses to Selective Glucocorticoid Receptor Modulators” (Corcept Therapeutics Incorporated, priority 2022, published 2026)

Legend:
Format in all cases: cell-based, human
iPSC^USP48MV organoids = assay: EdU uptake (proliferation) in iPSCUSP48MV organoids; conditions: compound alone, 500 nM, 48 h
Experimental: iPSCs were stained for pituitary specific hormones including luteinizing hormone (LH), follicle-stimulating hormone (FSH), growth hormone (GH), prolactin (PRL), ACTH, cytokeratin 8/18 (CAM5.2), pituitary transcription factor PIT-1 and neuroendocrine marker Synaptophysin (Table 5). Cultures were immunostained for proliferation marker EdU (Click-IT EdU Alexa Fluor 555 Imaging Kit, Thermo Fisher Scientific C10338). Antibody dilutions were determined based on manufacturer guidelines and antibody titration (Table 5). Staining was conducted according to previously published protocols. Briefly, organoids and iPSCs grown in 8-well glass bottom chamber slides were fixed using 3.7% formaldehyde, washed with DPBS, permeabilized with 0.5% Triton X-100 (SIGMA X-100, PBS-T, 20 min at room temperature), washed with 0.01% PBS-T, and blocked with 2% donkey serum (Jackson Immuno Research 017-000-121) for 1 hour at room temperature. After blocking, primary antibodies were added and incubated overnight at 4° C. Slides were washed with 0.01% PBS-T and incubated with secondary antibodies (Table 5) with Hoechst (Thermo Fisher Scientific H1399) for 1 hour at room temperature. Organoids were washed and stored in PBS at 4° C. until microscopic analysis. High content confocal microscopy was performed using the Nikon Ti2-E Inverted Microscope (with a Crest X-Light V2 L-FOV Spinning Disk Confocal) at the University of Arizona Cancer Center, or a ZEISS LSM880 34 channel Laser Scanning Confocal Microscope at University of Arizona Marley Imaging Core. Fluorescence intensity was quantified as the percentage of marker-positive cells versus total cells, using Nikon Elements Software (Version 5.21.05). Proliferation for each iPSC line was quantified as the percentage of EdU-positive cells versus total cells.
Sonic Hedgehog (SHH) was withdrawn from the organoid growth media 16 hours prior to treatment. The experimental treatment groups included: vehicle (Veh), mifepristone (500 nM, Selleckchem S2606), GANT61 (5 μM, Stemcell Technologies 73692), ketoconazole (Keto, 10 μM, Selleckchem S1353), pasireotide (Pas, 100 nM, Target Mol TP2207-SB001), octreotide (Oct, 100 nM, Selleckchem P1017), mifepristone plus GANT61, mifepristone plus Keto, mifepristone plus Pas, relacorilant (500 nM, Corcept Therapeutics CORT125134), relacorilant plus Pas, relacorilant plus Oct, or dexamethasone (Dexa, 100 nM, SIGMA S4902). In the combination treatments, cultures were pretreated with the GANT61, Keto, Pas or Oct for 2 hours prior to treatment with mifepristone or Rela. […] The IC50 values used for each hPITO line for each drug were determined based on dose responses (FIG. 12). […]

SSTR5 = assay: Spectral flow cytometry, SSTR5 positive cells, iPSCUSP48MV organoids; conditions: 48 h, FIGS. 8B, F
Experimental: (§1) Sonic Hedgehog (SHH) was withdrawn from the organoid growth media 16 hours prior to treatment. The experimental treatment groups included: vehicle (Veh), mifepristone (500 nM, Selleckchem S2606), GANT61 (5 μM, Stemcell Technologies 73692), ketoconazole (Keto, 10 μM, Selleckchem S1353), pasireotide (Pas, 100 nM, Target Mol TP2207-SB001), octreotide (Oct, 100 nM, Selleckchem P1017), mifepristone plus GANT61, mifepristone plus Keto, mifepristone plus Pas, relacorilant (500 nM, Corcept Therapeutics CORT125134), relacorilant plus Pas, relacorilant plus Oct, or dexamethasone (Dexa, 100 nM, SIGMA S4902). In the combination treatments, cultures were pretreated with the GANT61, Keto, Pas or Oct for 2 hours prior to treatment with mifepristone or Rela. PitNET tissue derived organoids hPITO36, hPITO37, hPITO38, hPITO39, and hPITO40 were treated with the following experimental conditions: Vehicle (1), pasireotide (2), relacorilant (3), relacorilant & pasireotide (4), mifepristone (5), mifepristone & pasireotide (6). The IC50 values used for each hPITO line for each drug were determined based on dose responses (FIG. 12). All organoid cultures were treated for 48 hours prior to analysis.
(§2) The multicolor flow cytometry antibody panel was designed using the Cytek® Full Spectrum Viewer online tool to calculate the similarity index. Organoids were harvested in cold Serum-Free Defined Medium media and incubated with Zombie (BioLegend 423107, 1:100) for 15 minutes in the dark at room temperature, followed by incubation with fluorochrome-conjugated/unconjugated primary surface or cytoplasmic antibodies (Table 6) at 4° C. for 30 minutes. Cells were then washed with Cell Staining Buffer (BioLegend 420-201) and incubated at 4° C. for 30 minutes with secondary antibodies (Table 6). Cells were fixed using Cytofix/Cytoperm™ Fixation/Permeabilization Solution (BD Biosciences 554714) and washed with Fixation/Permeabilization wash buffer according to the recommended protocol. […] Data was acquired using the Cytek® Aurora, analyzed using Cytobank Premium software (Beckman Coulter).

SSTR2 [1] = assay: Spectral flow cytometry, SSTR2 positive cells, hPITOs; conditions: hPITO, 48 h, FIGS. 9E, F
From the text: 1.3 Generation and Culture of Human PitNET Tissue Organoids (hPITOs)
Patients undergoing planned transsphenoidal surgery for PitNETs were identified in the outpatient neuroendocrinology and neurosurgery clinics and collected by the St. Joseph's Hospital and Barrow Neurological Institute Biobank under the collection protocol PHXA-05TS038, and outcomes data protocol PHXA-0004-72-29 with approval of the Institutional Review Board (IRB) and patient consent. De-identified samples were shipped in collection and transport media (Table 3) to the Zavros laboratory (University of Arizona) for processing within 24 hours of collection. Resected PitNET tissues were washed with Dulbeccos Phosphate Buffered Saline (DPBS) supplemented with 1× Penicillin/Streptomycin, 1× Kanamycin and 1× Amphotericin/Gentamycin, minced into smaller pieces, and incubated with digestion buffer (Dulbecco's Modified Eagle Medium/Nutrient Mixture F-12 (DMEM/F12) supplemented with 0.4% Collagenase 2, 0.1% Hyaluronic Acid, 0.03% Trypsin). The tissue was incubated with Accutase (Thermo Fisher Scientific) for a further 5 minutes, and the cells were pelleted and washed with DPBS supplemented with antibiotics. Dissociated cells were then seeded as Matrigel™ domes in culture dishes and overlaid with growth media (Table 4). Media was replaced every 3 days and organoids were harvested for downstream experiments or passaged after 15 days of culture (FIG. 1B).
Sonic Hedgehog (SHH) was withdrawn from the organoid growth media 16 hours prior to treatment. […] The IC50 values used for each hPITO line for each drug were determined based on dose responses (FIG. 12). […]

SSTR2 [2] = assay: Spectral flow cytometry, SSTR2 positive cells, iPSCUSP48MV organoids; conditions: 48 h, FIGS. 8A, E
Experimental: as §1, §2

Question: For CC#C[C@]1(O)CC[C@H]2[C@@H]3CCC4=CC(=O)CCC4=C3[C@@H](c3ccc(N(C)C)cc3)C[C@@]21C [mifepristone, 11β-(4-dimethylaminophenyl)-17ß-hydroxy-17α-(1-propynyl)-estra-4,9-dien-3-one], which “proliferation (EdU uptake)” value (iPSC^USP48MV organoids) is on record?
Answer: The value was “significant increase in cell proliferation”.

Question: What about the “percentage of SSTR5 positive cells” value (SSTR5) of the same compound?
Answer: Its value is “significant increase”.

Question: What about the “magnitude of SSTR2 induction, mifepristone vs relacorilant” value (SSTR2 [1]) of the same compound?
Answer: Its value is “significantly greater than that of relacorilant”.

Question: And the “percentage of SSTR2 positive cells” value (SSTR2 [1])?
Answer: Its value is “significant increase”.

Question: And the “magnitude of SSTR2 induction, mifepristone vs relacorilant” value (SSTR2 [2])?
Answer: Its value is “significantly greater than that of relacorilant”.

Question: What about the “percentage of SSTR2 positive cells” value (SSTR2 [2]) of the same compound?
Answer: The value was “significant increase”.

Question: Which “proliferation (EdU uptake)” value (iPSC^USP48MV organoids) does the source give for Cn1cc(S(=O)(=O)N2CCC3=Cc4c(cnn4-c4ccc(F)cc4)C[C@]3(C(=O)c3cc(C(F)(F)F)ccn3)C2)cn1 [relacorilant, (R)-(1-(4-fluorophenyl)-6-((1-methyl-1H-pyrazol-4-yl)sulfonyl)-4,4a,5,6,7,8-hexahydro-1H-pyrazolo[3,4-g]isoquinolin-4a-yl) (4-(trifluoromethyl)pyridin-2-yl) methanone] here?
Answer: Its value is “did not induce organoid proliferation”.

Question: What about the “magnitude of SSTR5 induction, relacorilant vs mifepristone” value (SSTR5) of the same compound?
Answer: The value was “significantly greater than that of mifepristone”.

Question: And the “percentage of SSTR5 positive cells” value (SSTR5)?
Answer: The value was “significant increase”.

Question: What about the “percentage of SSTR2 positive cells” value (SSTR2 [1]) of the same compound?
Answer: Its value is “significant increase”.

Question: What about the “percentage of SSTR2 positive cells” value (SSTR2 [2]) of the same compound?
Answer: Its value is “significant increase”.
